Patent publication US12583849B2, “KCNT1 inhibitors and methods of use” (Praxis Precision Medicines, Inc., priority 2020, dated 2026)

The compounds below were run against T1, KCNT1 (KNa1.1, Slack) (Homo sapiens, UniProt Q5JUK3) (assay: KCNT1-WT-Basal Patch Clamp Assay). Conditions: tetracycline inducible cell line (HEK-TREX); SyncroPatch 384PE automated patch clamp, perforated patch mode, room temperature, step from -80 mV to 0 mV.
T1 construct: expressed in transfected cells; host or cells: HEK-TREX (tetracycline-inducible cell line)
T1 sequence (Q5JUK3 1-1230): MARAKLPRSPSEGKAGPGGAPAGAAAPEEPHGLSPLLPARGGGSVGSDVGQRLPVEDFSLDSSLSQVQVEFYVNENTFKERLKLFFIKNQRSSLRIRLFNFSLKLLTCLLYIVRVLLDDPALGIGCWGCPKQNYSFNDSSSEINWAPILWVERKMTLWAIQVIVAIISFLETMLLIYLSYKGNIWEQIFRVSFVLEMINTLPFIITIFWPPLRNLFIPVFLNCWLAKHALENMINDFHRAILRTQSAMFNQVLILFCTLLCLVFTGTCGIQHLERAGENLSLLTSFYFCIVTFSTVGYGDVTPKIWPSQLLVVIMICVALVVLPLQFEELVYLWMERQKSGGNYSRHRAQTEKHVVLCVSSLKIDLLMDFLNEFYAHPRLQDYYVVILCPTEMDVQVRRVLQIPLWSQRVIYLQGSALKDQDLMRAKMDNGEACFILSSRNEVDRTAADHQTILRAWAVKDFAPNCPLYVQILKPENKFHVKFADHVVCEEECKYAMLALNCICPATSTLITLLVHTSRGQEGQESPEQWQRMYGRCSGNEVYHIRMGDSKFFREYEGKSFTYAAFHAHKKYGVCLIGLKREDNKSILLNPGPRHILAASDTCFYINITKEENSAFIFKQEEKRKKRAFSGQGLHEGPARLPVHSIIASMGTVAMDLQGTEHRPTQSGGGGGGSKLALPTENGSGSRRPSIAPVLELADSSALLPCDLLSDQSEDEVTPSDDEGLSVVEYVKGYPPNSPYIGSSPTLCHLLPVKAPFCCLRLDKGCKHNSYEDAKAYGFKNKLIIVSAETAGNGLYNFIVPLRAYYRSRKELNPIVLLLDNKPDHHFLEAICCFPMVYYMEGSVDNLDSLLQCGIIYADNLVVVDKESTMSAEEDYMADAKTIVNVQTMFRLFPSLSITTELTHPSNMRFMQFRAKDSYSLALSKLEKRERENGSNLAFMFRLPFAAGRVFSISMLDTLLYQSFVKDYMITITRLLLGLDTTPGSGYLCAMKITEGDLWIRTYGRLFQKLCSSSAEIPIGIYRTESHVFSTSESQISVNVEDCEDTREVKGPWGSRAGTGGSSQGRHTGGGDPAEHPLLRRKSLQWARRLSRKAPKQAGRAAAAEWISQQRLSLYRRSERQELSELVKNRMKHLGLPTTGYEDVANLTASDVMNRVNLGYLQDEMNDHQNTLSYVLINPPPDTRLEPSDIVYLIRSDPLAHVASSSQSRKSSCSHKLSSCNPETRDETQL
Type: cell-based
Experimental: KCNT1-WT-Basal—Patch Clamp Assay
Inhibition of KCNT1 (KNa1.1, Slack) was evaluated using a tetracycline inducible cell line (HEK-TREX). Currents were recorded using the SyncroPatch 384PE automated, patch clamp system. Pulse generation and data collection were performed with PatchController384 V1.3.0 and DataController384 V1.2.1 (Nanion Technologies). The access resistance and apparent membrane capacitance were estimated using built-in protocols. Current were recorded in perforated patch mode (10 μM escin) from a population of cells. The cells were lifted, triturated, and resuspended at 800,000 cells/ml. The cells were allowed to recover in the cell hotel prior to experimentation. Currents were recorded at room temperature. The external solution contained the following (in mM): NaCl 105, NMDG 40, KCl 4, MgCl2 1, CaCl2 5 and HEPES 10 (pH=7.4, Osmolarity ˜300 mOsm). The extracellular solution was used as the wash, reference and compound delivery solution. The internal solution contained the following (in mM): NaCl 70, KF 70, KCl 10, EGTA 5, HEPES 5 and Escin 0.01 (pH=7.2, Osmolarity ˜295 mOsm). Escin is made at a 5 mM stock in water, aliquoted, and stored at −20° C. The compound plate was created at 2× concentrated in the extracellular solution. The compound was diluted to 1:2 when added to the recording well. The amount of DMSO in the extracellular solution was held constant at the level used for the highest tested concentration. A holding potential of −80 mV with a 100 ms step to 0 mV was used. Mean current was measured during the step to 0 mV. […] The average mean current from 3 sweeps was calculated and the % inhibition of each compound was calculated. The % Inhibition as a function of the compound concentration was fit with a Hill equation to derive IC50, slope, min and max parameters. If KCNT1 inhibition was less than 50% at the highest tested concentration or if an IC50 could not be calculated, then a percent inhibition was reported in place of the IC50.
In this table, “A” indicates IC50 of less than or equal to 1 μM; “B” indicates inhibition of between 1 μM to 20 μM; and “C” indicates inhibition of greater than or equal to 20 μM.

Compared with `Cc1c(C(=O)NC(C)c2nc(-c3cccc(F)c3)no2)nc2ccccn12` (stereo not drawn) [Compound I-49, N-[1-[3-(3-fluorophenyl)-1,2,4-oxadiazol-5-yl]ethyl]-3-methyl-imidazo[1,2-a]pyridine-2-carboxamide], `C[C@H](NC(=O)CN(C)c1ccccc1)c1nc(-c2ccnc(C(F)(F)F)c2)no1` [III-4, (S)-2-(methyl(phenyl)amino)-N-(1-(3-(2-(trifluoromethyl)pyridin-4-yl)-1,2,4-oxadiazol-5-yl)ethyl)acetamide] is lower in IC50: ≥ 20000 nM for the first, ≤ 1000 nM for the second. The second is the more potent here.

`C[C@H](NC(=O)c1cccc(C(=O)N(C)C)c1)c1nc(-c2ccnc(C3CC3)c2)no1` [Compound I-90, (S)—N1-(1-(3-(2-cyclopropylpyridin-4-yl)-1,2,4-oxadiazol-5-yl)ethyl)-N3,N3-dimethylisophthalamide] and `C[C@H](NC(=O)c1cccc(C(N)=O)c1)c1nc(-c2ccnc(C3CC3)c2)no1` [Compound I-91, (S)—N-(1-(3-(2-cyclopropylpyridin-4-yl)-1,2,4-oxadiazol-5-yl)ethyl) isophthalamide] fall in the same range of IC50: 1000 to 20000 nM for the first, 1000 to 20000 nM for the second.

`C[C@H](NC(=O)N(C)C(C)(C)C)c1nc(-c2ccnc(C3CC3)c2)no1` [II-9] and `C[C@H](NC(=O)C(C)(C)C)c1nc(-c2ccnc(C3CC3)c2)no1` [III-5] cannot be ordered by IC50: ≤ 1000 nM for the first, ≤ 1000 nM for the second.

`CC(=O)N1CCCCC1C(=O)N[C@@H](C)c1nc(-c2ccnc(C(F)(F)F)c2)no1` (mixture of isomers) [Compound I-86, 1-acetyl-N-[(1S)-1-[3-[2-(trifluoromethyl)-4-pyridyl]-1,2,4-oxadiazol-5-yl]ethyl]piperidine-2-carboxamide] and `C[C@H](NC(=O)C1CCOCC1)c1nc(-c2ccnc(C(F)(F)F)c2)no1` [Compound I-12, (S)—N-(1-(3-(2-(trifluoromethyl)pyridin-4-yl)-1,2,4-oxadiazol-5-yl)ethyl)tetrahydro-2H-pyran-4-carboxamide] cannot be ordered by IC50: ≥ 20000 nM for the first, ≥ 20000 nM for the second.

`C[C@H](NC(=O)Cc1ccccc1)c1nc(-c2ccnc(C(F)(F)F)c2)no1` [Compound I-13, (S)-2-phenyl-N-(1-(3-(2-(trifluoromethyl)pyridin-4-yl)-1,2,4-oxadiazol-5-yl)ethyl)acetamide] and `C[C@H](NC(=O)c1ccccn1)c1nc(-c2ccnc(C(F)(F)F)c2)no1` [Compound I-7, (S)—N-(1-(3-(2-(trifluoromethyl)pyridin-4-yl)-1,2,4-oxadiazol-5-yl)ethyl)picolinamide] cannot be ordered by IC50: 1000 to 20000 nM for the first, ≥ 20000 nM for the second.

`C[C@H](NC(=O)c1nc(C(F)(F)F)cs1)c1nc(-c2ccnc(C(F)(F)F)c2)no1` [Compound I-5, (S)-4-(trifluoromethyl)-N-(1-(3-(2-(trifluoromethyl)pyridin-4-yl)-1,2,4-oxadiazol-5-yl)ethyl)thiazole-2-carboxamide] and `C[C@H](NC(=O)c1ccc(C(F)(F)F)cn1)c1nc(-c2ccnc(C(F)(F)F)c2)no1` [Compound I-1, (S)-5-(trifluoromethyl)-N-(1-(3-(2-(trifluoromethyl)pyridin-4-yl)-1,2,4-oxadiazol-5-yl)ethyl)picolinamide] cannot be ordered by IC50: ≤ 1000 nM for the first, 1000 to 20000 nM for the second.

`CC(C)Oc1cc(-c2noc([C@H](C)NC(=O)N3CCOc4ccccc43)n2)ccn1` [II-4] and `CC(C)Oc1cc(-c2noc([C@H](C)NC(=O)N3CCCc4ccccc43)n2)ccn1` [II-3] cannot be ordered by IC50: ≤ 1000 nM for the first, ≤ 1000 nM for the second.

`C[C@H](NC(=O)c1ccc(S(C)(=O)=O)s1)c1nc(-c2ccnc(C3CC3)c2)no1` [Compound I-70, (S)—N-(1-(3-(2-cyclopropylpyridin-4-yl)-1,2,4-oxadiazol-5-yl)ethyl)-5-(methylsulfonyl)thiophene-2-carboxamide] and `Cc1cc(C(=O)N[C@@H](C)c2nc(-c3ccnc(C4CC4)c3)no2)ccn1` [Compound I-101, (S)—N-(1-(3-(2-cyclopropylpyridin-4-yl)-1,2,4-oxadiazol-5-yl)ethyl)-2-methyl isonicotinamide] cannot be ordered by IC50: ≤ 1000 nM for the first, ≤ 1000 nM for the second.

`C[C@H](NC(=O)NC(C)(C)C)c1nc(-c2ccnc(C3CC3)c2)no1` [II-7] and `C[C@H](NC(=O)[C@H]1CC[C@H](C)CC1)c1nc(-c2ccnc(C3CC3)c2)no1` [Compound I-29, (S)—N-(1-(3-(2-cyclopropylpyridin-4-yl)-1,2,4-oxadiazol-5-yl)ethyl)-4-methylcyclohexane-1-carboxamide] cannot be ordered by IC50: ≤ 1000 nM for the first, ≤ 1000 nM for the second.

`COc1cccc(C(=O)N[C@@H](C)c2nc(-c3ccnc(C4CC4)c3)no2)c1` [Compound I-79] and `C[C@H](NC(=O)c1cccc(Cl)c1)c1nc(-c2ccnc(C3CC3)c2)no1` [Compound I-63, 3-chloro-N-[(1S)-1-[3-(2-cyclopropyl-4-pyridyl)-1,2,4-oxadiazol-5-yl]ethyl]benzamide] cannot be ordered by IC50: ≤ 1000 nM for the first, ≤ 1000 nM for the second.

`CC1CC(C(=O)N[C@@H](C)c2nc(-c3ccnc(C(F)(F)F)c3)no2)C1` (mixture of isomers) [Compound I-74, 3-methyl-N-[(1S)-1-[3-[2-(trifluoromethyl)-4-pyridyl]-1,2,4-oxadiazol-5-yl]ethyl]cyclobutanecarboxamide] and `C[C@H](NC(=O)C1CCC(C)(C)CC1)c1nc(-c2ccnc(C(F)(F)F)c2)no1` [Compound I-67, (S)-4,4-dimethyl-N-(1-(3-(2-(trifluoromethyl)pyridin-4-yl)-1,2,4-oxadiazol-5-yl)ethyl)cyclohexane-1-carboxamide] cannot be ordered by IC50: ≤ 1000 nM for the first, ≤ 1000 nM for the second.

`C[C@H](NC(=O)c1ccnc(C(F)(F)F)c1)c1nc(-c2ccnc(C3CC3)c2)no1` [Compound I-96, (S)—N-(1-(3-(2-cyclopropylpyridin-4-yl)-1,2,4-oxadiazol-5-yl)ethyl)-2-(trifluoromethyl)isonicotinamide] and `C[C@H](NC(=O)c1cccc(C#N)c1)c1nc(-c2ccnc(C3CC3)c2)no1` [Compound I-88, (S)-3-cyano-N-(1-(3-(2-cyclopropylpyridin-4-yl)-1,2,4-oxadiazol-5-yl)ethyl)benzamide] cannot be ordered by IC50: ≤ 1000 nM for the first, ≤ 1000 nM for the second.

Going from `C[C@H](NC(=O)[C@H]1CC[C@@H](C)CC1)c1nc(-c2ccnc(C3CC3)c2)no1` [Compound I-84, (1S,4R)—N—((S)-1-(3-(2-cyclopropylpyridin-4-yl)-1,2,4-oxadiazol-5-yl)ethyl)-4-methylcyclohexane-1-carboxamide] to `C[C@H](NC(=O)C1(C#N)CC1)c1nc(-c2ccnc(C(F)(F)F)c2)no1` [Compound I-32, (S)-1-cyano-N-(1-(3-(2-(trifluoromethyl)pyridin-4-yl)-1,2,4-oxadiazol-5-yl)ethyl)cyclopropane-1-carboxamide], the IC50 rises from ≤ 1000 nM to ≥ 20000 nM. The first is the more potent here.

In the case of `C[C@H](NC(=O)c1ccno1)c1nc(-c2ccnc(C(F)(F)F)c2)no1` [Compound I-23, (S)—N-(1-(3-(2-(trifluoromethyl)pyridin-4-yl)-1,2,4-oxadiazol-5-yl)ethyl)isoxazole-5-carboxamide], the IC50 is reported as ≥ 20000 nM.
